Source: patent publication US20100119595A1, “Monounsaturated fatty acids and perhydrocyclopentanophenanthrene nucleus combination molecules, and their precursors, and the use of all of these as weight-loss agents” (priority 2001, published 2010)

Experiment: Human study of 2 hydroxyestrone oleate (Example 11)
Format: in vivo
Details: humans, oral capsule, 0.75 or 0.375 micromoles/kg
Description: In this random, double-blind, placebo controlled study, subjects are selected to one of three groups and take a capsule orally every morning containing one of the following: a) sunflower oil (placebo), b) 2 hydroxyestrone oleate dissolved in sunflower oil at a dose of 0.75 micromoles/kg, or c) 2 hydroxyestrone oleate dissolved in sunflower oil at a dose of 0.375 micromoles/kg. […]
Different tests are performed at least five different times during each study, namely at the screening of potential participants, at the beginning of the study, weekly during the trials, at the end of the first 4 week period and at the end of the second 4 week treatment period. • 1) SCREENING: Subjects are screened to exclude hypothyroidism, pregnancy, and heart disease. […] Subjects selected to participate in the studies have the following initial measurements: WEIGHT, WAIST to HIP RATIO, HEIGHT, BMI (calculated), BODY FAT % & TOTAL BODY FAT (via bioelectrical impedance method). […]
Ad libitum diets are followed, and food intake and appetite are assessed daily by the patient with an appropriate questionnaire and booklet. […]

SMILES: CCCCCCCC/C=C\CCCCCCCC(=O)Oc1cc2c(cc1O)[C@H]1CC[C@]3(C)C(=O)CC[C@H]3[C@@H]1CC2 [2HOE, 2 hydroxyestrone oleate]
- appetite: reduces appetite
- weight loss, loss of body fat, and/or decrease of body fat%: produces weight loss
